Experimental data reported in ChEMBL document CHEMBL1201862, “PubChem BioAssay data set” (2004).
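96-well plates; 48 h exposure; 5 concentrations. Endpoints by linear interpolation between flanking doses. Not reached: highest tested concentration assigned. GI50 = concentration required for 50% inhibition of growth.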 Calls of active or inactive are those of the source. Cut-off read from the data, not from the text of the source: active = GI50 up to about 1.1 µM and inactive = higher.

Experiments:
Assay in all cases: inhibition of tumour cell growth, NCI panel, 48 h
[1] = tested on: DLD-1
[2] = tested on: DMS-114
[3] = tested on: HL-60
[4] = tested on: KM12
[5] = tested on: M14
[6] = tested on: M19-MEL
[7] = tested on: NCI-H522
[8] = tested on: SN12C
[9] = tested on: XF498
[10] = tested on: COLO 205
[11] = tested on: DMS-273
[12] = tested on: HOP-18
[13] = tested on: KM-20L2
[14] = tested on: MCF7
[15] = tested on: NCI/ADR-RES
[16] = tested on: OVCAR-8
[17] = tested on: DU-145
[18] = tested on: MDA-MB-231
[19] = tested on: PC-3
[20] = tested on: T47D

Measured: GI50

Cc1cccc(NC(N)=S)c1
inactive: [1] > 100 µM | [2] > 100 µM | [3] > 100 µM | [4] > 100 µM | [5] > 100 µM | [6] > 100 µM | [7] > 100 µM | [8] > 100 µM | [9] > 100 µM

C#CCNC(=O)CCC(N)C(=O)O (stereo not drawn)
inactive: [10] > 100 µM | [1] > 100 µM | [2] > 100 µM | [11] > 100 µM | [3] > 100 µM | [12] > 100 µM | [13] > 100 µM | [4] > 100 µM | [6] > 100 µM | [14] > 100 µM | [7] > 100 µM | [15] > 100 µM | [16] > 100 µM | [8] > 100 µM | [9] > 100 µM

COc1c2c(c3ccccc3c1O)C1C=CC2C1 (stereo not drawn)
inactive: [10] 16.1 µM | [1] 13.3 µM | [2] 4.95 µM | [11] 15.7 µM | [3] > 10 µM | [12] 15.1 µM | [13] 22.3 µM | [4] 17.6 µM | [5] 14.7 µM | [6] 2.32 µM | [7] 14.9 µM | [16] 13.7 µM | [8] 15.1 µM | [9] 14.7 µM

COC(=O)C1=C(C)N2CCSC2(C)C(C(=O)OC)C1c1cccc(Cl)c1 (stereo not drawn)
inactive: [10] 18.5 µM | [2] 19.8 µM | [3] 12.4 µM | [13] 17.5 µM | [4] 18.8 µM | [5] 30.1 µM | [6] 16 µM | [16] 22.6 µM

O=C(O)C(Br)Cc1ccc2c(c1)OCO2 (stereo not drawn)
inactive: [10] 55.7 µM | [1] > 100 µM | [2] > 100 µM | [3] > 100 µM | [13] > 100 µM | [4] > 100 µM | [5] > 100 µM | [6] 69.2 µM | [7] > 100 µM | [8] > 100 µM | [9] 24 µM

Oc1cc2cc(O)nc(O)c2c(O)n1
inactive: [10] > 100 µM | [1] > 100 µM | [2] > 100 µM | [11] > 100 µM | [3] > 100 µM | [13] > 100 µM | [4] > 100 µM | [5] > 100 µM | [6] > 100 µM | [7] > 100 µM | [8] > 100 µM | [9] > 100 µM

COP(=O)(OC)C(Cc1c[nH]c2ccccc12)NC(=O)OCc1ccccc1 (stereo not drawn)
inactive: [10] > 100 µM | [17] > 100 µM | [3] > 100 µM | [5] > 100 µM | [14] > 100 µM | [18] > 100 µM | [7] > 100 µM | [15] > 100 µM | [16] > 100 µM | [19] > 100 µM | [8] > 100 µM | [20] 71.3 µM

COc1cc(CNc2nc3c(NC(C)=O)cc(C(F)(F)F)cc3nc2-c2ccccc2)cc(OC)c1OC
inactive: [10] > 100 µM | [1] > 100 µM | [2] > 100 µM | [11] > 100 µM | [13] > 100 µM | [4] > 100 µM | [6] > 100 µM | [7] > 100 µM | [16] > 100 µM | [8] > 100 µM | [9] 26.5 µM

Cc1cc(O)nc(NN2C(Cl)C(=O)C2c2ccco2)n1 (stereo not drawn)
inactive: [10] 78.2 µM | [2] 34.4 µM | [11] 33.7 µM | [3] 15.3 µM | [12] 21.1 µM | [13] 39.4 µM | [4] 44.6 µM | [5] 33.8 µM | [6] 39.5 µM | [16] 46.5 µM | [8] 24.2 µM
